Test results taken from patent publication US20250145665A1, “MACROCYCLIC PEPTIDES USEFUL AS MODULATORS OF TNF ALPHA” (Bristol-Myers Squibb Company, priority 2023, published 2025).
Where two headings read alike, the source gives them in different places. Starred links: 1 amine or outer side, 2 acyl side, 3 side chain; linkers in the order of their positions; H or OH if unused. Positions of bridges follow the written chain, without caps; N, C: chain ends. Non-standard residues stand in square brackets, D forms with d. Residues, ends and D or L forms follow the SMILES beside them. *: point of attachment. Bip(4'-NHCO-C6H4-4-CH2COOH) = N[C@@H](Cc1ccc(-c2ccc(NC(=O)c3ccc(CC(=O)O)cc3)cc2)cc1)C(=O)O; X5 = Cn1nc(C(=O)Nc2ccc(-c3ccc(C[C@H](N[*:1])C(=O)[*:2])cc3)cc2)c2ccccc21; dArg(ω-(2S)-2,3-diOHpropyl) = N=C(NCCC[C@@H](N)C(=O)O)NC[C@H](O)CO; Bip(4'-NH) = O=C([C@H](Cc1ccc(-c2ccc(N[*:3])cc2)cc1)N[*:1])[*:2]; X14 = O=C([C@H](Cc1ccc(-c2cccc(C(=O)[*:3])c2)cc1)N[*:1])[*:2]; Indazole3carbonyl(1-CH2COOH) = O=C(O)Cn1nc(C(=O)*)c2ccccc21; Bip(4'-COOH) = N[C@@H](Cc1ccc(-c2ccc(C(=O)O)cc2)cc1)C(=O)O; Bip(4'-NHAc) = CC(=O)Nc1ccc(-c2ccc(C[C@H](N)C(=O)O)cc2)cc1; Ala(imidazol-2-yl) = N[C@@H](Cc1ncc[nH]1)C(=O)O; dArg(ω-Bn) = N=C(NCCC[C@@H](N)C(=O)O)NCc1ccccc1; Ala(morpholin-4-yl) = N[C@@H](CN1CCOCC1)C(=O)O; Bip = N[C@@H](Cc1ccc(-c2ccccc2)cc1)C(=O)O; Tiq1c(1S) = O=C(O)[C@H]1NCCc2ccccc21; X61 = O=C(c1ccc2c(c1)Cc1ccccc1-2)*; X15 = O=C(O)c1cccc(Oc2ccccc2N*)c1; 2Pal = N[C@@H](Cc1ccccn1)C(=O)O; 2Thi = N[C@@H](Cc1cccs1)C(=O)O; Cha = N[C@@H](CC1CCCCC1)C(=O)O; Chg = N[C@H](C(=O)O)C1CCCCC1; Tle = CC(C)(C)[C@H](N)C(=O)O; Aze = O=C(O)[C@@H]1CCN1; Sar = CNCC(=O)O

Biological target: TNFα (Homo sapiens, UniProt P01375)
Assay: TNF-Induced HEK-Blue Assay
Type: cell-based
[1] = HEK-Blue-CD40L cells, NF-kB-driven secreted alkaline phosphatase reporter, TNFα 0.5 ng/ml, 18 h, read-out: TNF induced HEK-Blue assay IC50 value

Sequence of TNFα (P01375 77-233 limits assumed): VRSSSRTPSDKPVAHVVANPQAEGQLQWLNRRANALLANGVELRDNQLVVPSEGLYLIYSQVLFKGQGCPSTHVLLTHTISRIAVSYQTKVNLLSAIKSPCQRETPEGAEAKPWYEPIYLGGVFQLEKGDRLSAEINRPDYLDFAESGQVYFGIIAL

Row | IC50 [1] [nM] | SMILES | IC50 [nM]
1 |  | CC(C)C[C@@H]1NC(=O)[C@H](Cc2cccs2)NC(=O)[C@H](C(C)C)NC(=O)[C@@H]2CCCN2C(=O)[C@H](C(C)C)NC(=O)[C@@H](CCCNC(=N)NC[C@H](O)CO)NC(=O)[C@H](CC(=O)O)NC(=O)[C@H](Cc2ccccn2)NC(=O)CN(C)C(=O)[C@H](Cc2ccc(-c3ccc(NC(=O)c4nn(CC(=O)O)c5ccccc45)cc3)cc2)NC(=O)[C@H](Cc2ccc(-c3ccccc3)cc2)NC(=O)[C@H](CN2CCOCC2)NC(=O)CSC[C@@H](C(=O)NCC(N)=O)NC1=O [Example 639] ({CH2CO}-[Ala(morpholin-4-yl)][Bip][Bip(4'-NH)](Indazole3carbonyl(1-CH2COOH))[Sar][2Pal]D[dArg(ω-(2S)-2,3-diOHpropyl)]VPV[2Thi]LCG-NH2; thioether N-13) | < 50
2 | < 50 | CC[C@H](C)[C@@H]1NC(=O)[C@@H](CCCNC(=N)N)NC(=O)[C@H](CC(=O)O)NC(=O)[C@H](Cc2cnc[nH]2)NC(=O)CN(C)C(=O)[C@H](Cc2ccc(-c3ccc(NC(C)=O)cc3)cc2)NC(=O)[C@H](Cc2ccc(-c3ccc(C(=O)O)cc3)cc2)NC(=O)[C@H](CC2CCCCC2)NC(=O)CSC[C@@H](C(=O)NCC(N)=O)NC(=O)[C@H](CC(C)C)NC(=O)[C@H](Cc2cnc[nH]2)NC(=O)[C@H](C(C)C)NC(=O)[C@@H]2c3ccccc3CCN2C1=O [Example 276] ({CH2CO}-[Cha][Bip(4'-COOH)][Bip(4'-NHAc)][Sar]HD[dR]I[Tiq1c(1S)]VHLCG-NH2; thioether N-13) | 
3 | 50 to 200 | CC(=O)Nc1ccc(-c2ccc(C[C@@H]3NC(=O)[C@H](Cc4ccc(-c5ccccc5)cc4)NC(=O)[C@H](C(C)(C)C)NC(=O)CSC[C@@H](C(=O)NCC(N)=O)NC(=O)[C@H](CC(C)C)NC(=O)[C@H](Cc4ccccc4)NC(=O)[C@H](C(C)C)NC(=O)[C@@H]4CCCN4C(=O)[C@H](C(C)C)NC(=O)[C@@H](CCCNC(=N)N)NC(=O)[C@H](CC(=O)O)NC(=O)[C@H](Cc4ccc(O)cc4)NC(=O)CN(C)C3=O)cc2)cc1 [Example 263] ({CH2CO}-[Tle][Bip][Bip(4'-NHAc)][Sar]YD[dR]VPVFLCG-NH2; thioether N-13) | 
4 | 50 to 200 | CC[C@H](C)[C@@H]1NC(=O)[C@@H]2CCCN2C(=O)[C@H]([C@@H](C)CC)NC(=O)[C@@H](CCCNC(=N)N)NC(=O)[C@H](CC(=O)O)NC(=O)[C@H](Cc2ccccc2)NC(=O)CN(C)C(=O)[C@H](Cc2ccc(-c3ccc(NC(=O)c4ccc5c(c4)Cc4ccccc4-5)cc3)cc2)NC(=O)[C@H](Cc2ccc(-c3ccc(C(=O)O)cc3)cc2)NC(=O)[C@H](C(C)(C)C)NC(=O)CSC[C@@H](C(=O)NCC(N)=O)NC(=O)[C@H](CC(C)C)NC(=O)[C@H](Cc2cnc[nH]2)NC1=O [Example 418] ({CH2CO}-[Tle][Bip(4'-COOH)][Bip(4'-NH)](X61)[Sar]FD[dR]IPIHLCG-NH2; thioether N-13) | 
5 | 50 to 200 | CC(C)C[C@@H]1NC(=O)[C@H](Cc2ccc(O)cc2)NC(=O)[C@H](C(C)C)NC(=O)[C@@H]2CCCN2C(=O)[C@H](C(C)C)NC(=O)[C@H](CCCNC(=N)N)NC(=O)[C@H](CC(=O)O)NC(=O)[C@@H]2CCCN2C(=O)CN(C)C(=O)[C@H](Cc2ccc(-c3ccccc3)cc2)NC(=O)[C@H](Cc2ccc(-c3ccccc3)cc2)NC(=O)[C@H](CN2CCOCC2)NC(=O)CSC[C@@H](C(=O)NCC(N)=O)NC1=O [Example 49] ({CH2CO}-[Ala(morpholin-4-yl)][Bip][Bip][Sar]PDRVPVYLCG-NH2; thioether N-13) | 
6 | 200 to 2000 | CC(=O)Nc1ccc(-c2ccc(C[C@@H]3NC(=O)[C@H](Cc4ccc(-c5ccc(C(=O)O)cc5)cc4)NC(=O)[C@H](CN4CCOCC4)NC(=O)CSC[C@@H](C(=O)NCC(N)=O)NC(=O)[C@H](CC(C)C)NC(=O)[C@H](Cc4cccs4)NC(=O)[C@H](C4CCCCC4)NC(=O)[C@@H]4CCCN4C(=O)[C@H](C(C)C)NC(=O)[C@@H](CCCNC(=N)N)NC(=O)[C@H](CC(=O)O)NC(=O)[C@@H]4CCCN4C(=O)CN(C)C3=O)cc2)cc1 [Example 314] ({CH2CO}-[Ala(morpholin-4-yl)][Bip(4'-COOH)][Bip(4'-NHAc)][Sar]PD[dR]VP[Chg][2Thi]LCG-NH2; thioether N-13) | 
7 | 50 to 200 | CC(C)C[C@@H]1NC(=O)[C@H](CCCNC(=N)N)NC(=O)[C@H](C(C)C)NC(=O)[C@@H]2CCCN2C(=O)[C@H](C(C)C)NC(=O)[C@@H](CCCNC(=N)N)NC(=O)[C@H](CC(=O)O)NC(=O)[C@@H]2CCCN2C(=O)CN(C)C(=O)[C@H](Cc2ccc(-c3cccc(C(=O)Nc4ccccc4Oc4cccc(C(=O)O)c4)c3)cc2)NC(=O)[C@H](Cc2ccc(-c3ccccc3)cc2)NC(=O)[C@H](CN2CCOCC2)NC(=O)CSC[C@@H](C(=O)NCC(N)=O)NC1=O [Example 306] ({CH2CO}-[Ala(morpholin-4-yl)][Bip][X14](X15)[Sar]PD[dR]VPVRLCG-NH2; thioether N-13) | 
8 | < 50 | CC(=O)Nc1ccc(-c2ccc(C[C@@H]3NC(=O)[C@H](Cc4ccc(-c5ccccc5)cc4)NC(=O)[C@H](CN4CCOCC4)NC(=O)CSC[C@@H](C(=O)NCC(N)=O)NC(=O)[C@H](CC(C)C)NC(=O)[C@H](CCCNC(=N)N)NC(=O)[C@H](C4CCCCC4)NC(=O)[C@@H]4CCCN4C(=O)[C@H](C(C)C)NC(=O)[C@@H](CCCNC(=N)N)NC(=O)[C@H](CC(=O)O)NC(=O)[C@H](Cc4cnc[nH]4)NC(=O)CN(C)C3=O)cc2)cc1 [Example 232] ({CH2CO}-[Ala(morpholin-4-yl)][Bip][Bip(4'-NHAc)][Sar]HD[dR]VP[Chg]RLCG-NH2; thioether N-13) | 
9 | 200 to 2000 | CC(C)C[C@@H]1NC(=O)[C@H](Cc2ncc[nH]2)NC(=O)[C@H](C(C)C)NC(=O)[C@@H]2CCCN2C(=O)[C@H](C(C)C)NC(=O)[C@@H](CCCNC(=N)NCc2ccccc2)NC(=O)[C@H](CC(=O)O)NC(=O)[C@H](Cc2ccccn2)NC(=O)CN(C)C(=O)[C@H](Cc2ccc(-c3ccc(NC(=O)c4ccc(CC(=O)O)cc4)cc3)cc2)NC(=O)[C@H](Cc2ccc(-c3ccccc3)cc2)NC(=O)[C@H](CN2CCOCC2)NC(=O)CSC[C@@H](C(=O)NCC(N)=O)NC1=O [Example 642] ({CH2CO}-[Ala(morpholin-4-yl)][Bip][Bip(4'-NHCO-C6H4-4-CH2COOH)][Sar][2Pal]D[dArg(ω-Bn)]VPV[Ala(imidazol-2-yl)]LCG-NH2; thioether N-13) | 
10 | 50 to 200 | CC(C)C[C@@H]1NC(=O)[C@H](Cc2ccc(O)cc2)NC(=O)[C@H](CC(C)C)NC(=O)[C@@H]2CCCN2C(=O)[C@H](C(C)C)NC(=O)[C@@H](CCCNC(=N)N)NC(=O)[C@H](CC(=O)O)NC(=O)[C@H](Cc2ccc(O)cc2)NC(=O)CN(C)C(=O)[C@H](Cc2ccc(-c3ccccc3)cc2)NC(=O)[C@H](Cc2ccc(-c3ccccc3)cc2)NC(=O)[C@H](CN2CCOCC2)NC(=O)CSC[C@@H](C(=O)NCC(N)=O)NC1=O [Example 149] ({CH2CO}-[Ala(morpholin-4-yl)][Bip][Bip][Sar]YD[dR]VPLYLCG-NH2; thioether N-13) | 

Row | SMILES | IC50 [1] [nM] | IC50 [nM]
11 | CC[C@H](C)[C@@H]1NC(=O)[C@@H]2CCN2C(=O)[C@H]([C@@H](C)CC)NC(=O)[C@@H](CCCNC(=N)N)NC(=O)[C@H](CC(=O)O)NC(=O)[C@H](Cc2ccc(O)cc2)NC(=O)CN(C)C(=O)[C@H](Cc2ccc(-c3ccc(NC(=O)c4nn(C)c5ccccc45)cc3)cc2)NC(=O)[C@H](Cc2ccc(-c3ccccc3)cc2)NC(=O)[C@H](C(C)(C)C)NC(=O)CSC[C@@H](C(=O)NCC(N)=O)NC(=O)[C@H](CC(C)C)NC(=O)[C@H](Cc2ccc(O)cc2)NC1=O [Example 337] ({CH2CO}-[Tle][Bip][X5][Sar]YD[dR]I[Aze]IYLCG-NH2; thioether N-13) | 50 to 200 | 
